Experimental data as given in patent US12643882B2, “Inhibitors of human respiratory syncytial virus and metapneumovirus” (priority 2022, dated 2026).
Like-named read-outs stand apart in the source and are kept apart here.

Tests used:
hMPV-GFP virus = test: microbe, parasite or virus in culture; type: cell-based, human metapneumovirus
Experimental: GFP expressing rgHMPV #3 p3 was generated in Dr. Buchholz's lab (Biacchesi S. et al., J Virol. 2007 June; 81(11): 6057-6067) and propagated in VERO cells (ATCC Cat #CCL-81) with a Multiplicity of Infection (MOI) of 0.1. Virus was harvested 4 days after infection by collecting cultured material and was freeze-thaw cycled in liquid nitrogen twice. Working virus stocks were generated from thawing frozen samples in 37° C. water bath, which were centrifuged at 218 g for 15 min at 4° C. 1/10 of 10×SPG (Biological Industries 06-3061-01-5A) were added and then mixed. The supernatant was aliquoted, frozen in liquid nitrogen, and then transferred to a −80° C. freezer for storage. Virus titer was determined by performing titration test in 96-well plates and calculate approximate virus titer using GFP event/well data.
Compound plates were prepared by dispensing compounds dissolved in DMSO into wells of a 384 well Corning 3985 polystyrene flat clear bottom optical imaging microplate (202.5 nL/well) using an ECHO acoustic dispenser. Each compound was tested in 10-point serial 3-fold dilution (typical final concentrations: 40,300 nM-2 nM). […] Continuous culture of VERO cells was maintained in complete culture media (OptiMEM supplemented with 2 mM GlutaMAX™ and 100 U/ml Penicillin-Streptomycin). To set up the assay, VERO cells were trypsinized with 0.25% Trypsin-EDTA until cells were dislodged, then cells were re-suspended with 1 mL FBS. Cells were spun down at 300 g for 5 minutes and cells were washed twice with culture media and counted using default parameters on ViCell. Cells were then diluted to 100,000 cells/mL (5,000 cells/50 μL) in complete culture media+TrypLE Select (80 μL/mL). hMPV-GFP virus was added to cells at 125,000 pfu/mL (MOI=1.25) and were mixed by gentle inversion. 10 μL/well of 100% DMSO was dispensed to CellTiter-Glo (CTG) assay Max_E controls wells. Cells were dispensed at 50 μL/well using Bravo and 50 μL filtered tips into compound plates. Plates were covered with MicroClime lids and loaded with 7.5 mL of assay media to minimize evaporation. Plates were lightly shaken for 10 minutes at room temperature and then incubated at 37° C. and 5% CO2 for 48 hrs. Following incubation, distinct GFP-expressing cells were counted using an Acumen imaging system with appropriate settings. A same-well CTG assay was performed by adding 10 μL/well reconstituted CellTiter-Glo reagent (Promega G7573) and plates were read on PerkinElmer Envision according to manufacturer's instructions. Raw data were loaded and analyzed in ActivityBase. Antiviral IC50 and cytotoxicity CC50 values were determined using a 4 parameter logistic fit based on the Levenberg-Marquardt algorithm. Model: 205-4 Parameter Logistic. • References: Wen Z, Citron M, Bett A J, Espeseth A S, Vora K A, Zhang L, DiStefano D J. Development and application of a higher throughput RSV plaque assay by immunofluorescent imaging. J Virol Methods. 2019 January; 263:88-95. doi: 10.1016/j.jviromet.2018.10.022. Epub 2018 Oct. 28. PMD: 30381239. • Biacchesi S, Murphy B R, Collins P L, Buchholz U J. Frequent frameshift and point mutations in the SH gene of human metapneumovirus passaged in vitro. J Virol. 2007 June; 81(11):6057-67. doi: 10.1128/JVL.00128-07. Epub 2007 Mar. 21. PMID: 17376897; PMCID: MC 1900297. Assay Data

RSV-A2-GFP virus = test: microbe, parasite or virus in culture; type: cell-based, Human Respiratory Syncytial Virus
Experimental: To set up the assay, ARF vials were thawed in a 37° C. water bath and a control compound was resuspended in assay media DMEM (Dulbecco's Modified Eagle Medium) containing 2% FBS, 100 U/ml Penicillin-Streptomycin.
GFP sequence was derived from pJTI™ R4 Dest CMV N-EmGFP pA Vector (Invitrogen) and was cloned into the intergenic sequence between wild-type RSV-A2 P and M genes using standard recombineering techniques. Recombinant RSV-A2-GFP was propagated in Hep2 cells (human cells contain HeLa marker chromosomes and were derived via HeLa contamination, ATCC CCL-23) with a Multiplicity of Infection (MOI) of 0.1. Virus was harvested 3 days after infection by collecting all culture material and then freeze-thawing the mixture for 5 min. Working virus stocks were generated by thawing frozen viral cultures in 37° C. water bath, which were centrifuged at 218 g for 15 min at 4° C. 1/10 of 10×SPG (Biological Industries 06-3061-01-5A) were added and then mixed. The supernatant was aliquoted, frozen in liquid nitrogen, and then transferred to a −80° C. freezer for storage. Virus titer was determined by automated plaque assay in HEp-2 cells following methods described previously (Wen Z. et al.; 2019).
Calu-1 cells were purchased from ATCC (Cat #HTB-54) and were expanded in growth media (DMEM containing 10% FBS, 100 U/ml Penicillin-Streptomycin). To make ARF, cell culture media was removed and discarded and the cell layer was briefly rinsed with PBS to remove serum. 2.5 mL of TrypLE Express solution were added and cells incubated until dislodged, to which growth media was added and the cells were resuspended by gentle pipetting. Cells were counted for concentration and viability as determined by ViCell. Cells were centrifuged at RT, 300 g for 5 minutes to pellet cells. The supernatant was gently aspirated and the pellet was flicked to loosen cells. Cells were resuspended in an appropriate volume of freezing medium (DMEM containing 10% DMSO, 10% FBS, 100 U/ml Penicillin-Streptomycin) to achieve a concentration of 5×10^6 cells/mL. 1 mL aliquots of the cell suspension were transferred to freezing vials. The vials were put into an upright container in a −80° C. freezer overnight before transferring vials to liquid nitrogen for storage.
Assay ready freezedown (ARF, generation described separately) Calu-1 cells (ATCC HTB-54) were used. Compound plates were prepared by dispensing compounds dissolved in DMSO into the wells of a 384 well Corning® 3985 plate with an ECHO acoustic dispenser and compounds were tested in 10-point serial 3-fold dilution. […] To set up the assay, ARF vial(s) were thawed in a 37° C. water bath and were then resuspended into assay media (DMEM containing 2% FBS, 100 U/ml Penicillin-Streptomycin). Cells were counted using default parameters on ViCell and diluted to 20,000 cells/mL in assay media. RSV-A2-GFP virus was added to cells at 24,000 pfu/ml (MOI=1.2) and mixed by gentle inversion. 10 μL/well of 100% DMSO was dispensed as CellTiter-Glo (CTG) assay Max_E controls wells. The cells were dispensed at 50 μL/well using Bravo with 50 μL filtered tips into compound plates. Plates were covered with MicroClime lids, loaded with 7.5 mL of assay media to minimize evaporation, and were incubated at 37° C. and 5% CO2 for 96 hrs. Following incubation, distinct, GFP-expressing cells were counted using an Acumen imaging system with appropriate settings. A same-well CTG assay was performed by adding 10 μL/well reconstituted CellTiter-Glo reagent (Promega G7573) and plates were read on PerkinElmer Envision according to manufacturer's instructions. Raw data were loaded and analyzed in ActivityBase. Antiviral IC50 and cytotoxicity CC50 values were determined using a 4 parameter logistic fit based on the Levenberg-Marquardt algorithm. Model: 205-4 Parameter Logistic.

[1] = read-out: hMPV EC50, VERO cells infected with hMPV-GFP, 48 hrs, GFP-expressing cells counted
[2] = read-out: RSV EC50, Calu-1 cells infected with RSV-A2-GFP, 96 hrs, GFP-expressing cells counted
[3] = VERO cells infected with hMPV-GFP, 48 hrs, GFP-expressing cells counted, read-out: hMPV EC50
[4] = Calu-1 cells infected with RSV-A2-GFP, 96 hrs, GFP-expressing cells counted, read-out: RSV EC50
[5] = human metapneumovirus, Vero, 48 h, read-out: hMPV EC50, VERO cells infected with hMPV-GFP, 48 hrs, GFP-expressing cells counted
[6] = human respiratory syncytial virus, Calu-1, 96 h, read-out: RSV EC50, Calu-1 cells infected with RSV-A2-GFP, 96 hrs, GFP-expressing cells counted

SMILES | EC50 (hMPV-GFP virus; [3]) | EC50 (RSV-A2-GFP virus; [4]) | EC50 (hMPV-GFP virus; [5]) | EC50 (RSV-A2-GFP virus; [6]) | other results
Cn1nc(-c2ncccn2)cc1C(=O)N1C[C@H]2[C@H](Oc3cc(C(C)(C)N)cc(-c4ccc(C(F)(F)F)cc4)n3)[C@@]2(C)C1 (single isomer, unassigned; enantiomer 2) [Example 110B] | – | – | – | – | EC50 (hMPV-GFP virus; [1]): > 100 nM; EC50 (RSV-A2-GFP virus; [2]): < 10 nM
Cc1nn(-c2ncccn2)cc1C(=O)N1C[C@H]2[C@H](Oc3cc(C(C)(C)N)cc(-c4ccc(C(F)(F)F)cc4)n3)[C@@]2(C)C1 (single isomer, unassigned; enantiomer 2) [Example 111B] | – | – | – | – | EC50 (hMPV-GFP virus; [1]): 10 to 100 nM; EC50 (RSV-A2-GFP virus; [2]): < 10 nM
Cc1nc(-c2ncccn2)sc1C(=O)N1C[C@@H]2C(Oc3cc(C(C)(N)CO)cc(-c4ccc(F)cc4)n3)[C@@H]2C1 (single isomer, unassigned; enantiomer 2) [Example 113B] | > 100 nM | < 10 nM | – | – | –
CCC(C)(N)c1cc(OC2[C@H]3CN(C(=O)c4cn(-c5ncccn5)nc4C)C[C@@H]23)nc(-c2ccc(F)cc2)c1 (single isomer, unassigned; enantiomer 2) [Example 116B] | > 100 nM | < 10 nM | – | – | –
Cc1nc(-c2ncccn2)sc1C(=O)N1C[C@@H]2[C@H](C1)[C@H]2Nc1cc(C(C)(C)N)cc(-c2ccc(F)cc2)n1 [Example 7, ((1R,5S,6s)-6-((4-(2-aminopropan-2-yl)-6-(4-fluorophenyl)pyridin-2-yl)amino)-3-azabicyclo[3.1.0]hexan-3-yl)(4-methyl-2-(pyrimidin-2-yl)thiazol-5-yl)methanone] | – | – | > 100 nM | < 10 nM | –
Cc1nc(-c2ncccn2)sc1C(=O)N1C[C@@H]2[C@H](C1)[C@H]2Oc1cc(C(C)(C)N)cc(-c2ccc(F)cc2)n1 [Example 8, ((1R,5S,6s)-6-((4-(2-aminopropan-2-yl)-6-(4-fluorophenyl)pyridin-2-yl)oxy)-3-azabicyclo[3.1.0]hexan-3-yl)(4-methyl-2-(pyrimidin-2-yl)thiazol-5-yl)methanone] | – | – | 10 to 100 nM | < 10 nM | –
CC(C)(N)c1cc(O[C@H]2[C@@H]3CN(C(=O)c4cnc(-c5ncccn5)s4)C[C@@H]32)nc(-c2ccc(F)cc2)c1 [Example 9, ((1R,5S,6s)-6-((4-(2-aminopropan-2-yl)-6-(4-fluorophenyl)pyridin-2-yl)oxy)-3-azabicyclo[3.1.0]hexan-3-yl)(2-(pyrimidin-2-yl)thiazol-5-yl)methanone] | – | – | > 100 nM | < 10 nM | –
CCc1nc(-c2ncccn2)sc1C(=O)N1C[C@@H]2[C@H](C1)[C@H]2Oc1cc(C(C)(C)N)cc(-c2ccc(F)cc2)n1 [Example 10, ((1R,5S,6s)-6-((4-(2-aminopropan-2-yl)-6-(4-fluorophenyl)pyridin-2-yl)oxy)-3-azabicyclo[3.1.0]hexan-3-yl)(4-ethyl-2-(pyrimidin-2-yl)thiazol-5-yl)methanone] | 10 to 100 nM | < 10 nM | – | – | –
CC(C)(N)c1cc(O[C@H]2[C@@H]3CN(C(=O)c4sc(-c5ncccn5)nc4C(F)(F)F)C[C@@H]32)nc(-c2ccc(F)cc2)c1 [Example 11, ((1R,5S,6s)-6-((4-(2-aminopropan-2-yl)-6-(4-fluorophenyl)pyridin-2-yl)oxy)-3-azabicyclo[3.1.0]hexan-3-yl)(2-(pyrimidin-2-yl)-4-(trifluoromethyl)thiazol-5-yl)methanone] | > 100 nM | < 10 nM | – | – | –
Cc1nc(-c2ccccn2)sc1C(=O)N1C[C@@H]2[C@H](C1)[C@H]2Oc1cc(C(C)(C)N)cc(-c2ccc(F)cc2)n1 [Example 12, ((1R,5S,6s)-6-((4-(2-aminopropan-2-yl)-6-(4-fluorophenyl)pyridin-2-yl)oxy)-3-azabicyclo[3.1.0]hexan-3-yl)(4-methyl-2-(pyridin-2-yl)thiazol-5-yl)methanone] | > 100 nM | < 10 nM | – | – | –
Cc1nc(-c2ncccn2)sc1C(=O)N1C[C@@H]2[C@H](C1)[C@H]2Oc1cc(C(C)(C)N)cc(-c2cc(F)c(F)c(F)c2)n1 [Example 13, ((1R,5S,6s)-6-((4-(2-aminopropan-2-yl)-6-(3,4,5-trifluorophenyl)pyridin-2-yl)oxy)-3-azabicyclo[3.1.0]hexan-3-yl)(4-methyl-2-(pyrimidin-2-yl)thiazol-5-yl)methanone] | – | – | 10 to 100 nM | < 10 nM | –
Cc1nc(-c2ncccn2)sc1C(=O)N1C[C@@H]2[C@H](C1)[C@H]2Oc1cc(C(C)(C)N)cc(-c2ccc(F)c(F)c2F)n1 [Example 14, ((1R,5S,6s)-6-((4-(2-aminopropan-2-yl)-6-(2,3,4-trifluorophenyl)pyridin-2-yl)oxy)-3-azabicyclo[3.1.0]hexan-3-yl)(4-methyl-2-(pyrimidin-2-yl)thiazol-5-yl)methanone] | 10 to 100 nM | < 10 nM | – | – | –
